Results from patent US4575509A, “Water-soluble formulations of m-AMSA with pyroglutamic acid” (Bristol-Myers Company, priority 1984, dated 1986).
Structures can show the parent of a compound that is named as a salt. Where two headings read alike, the source gives them in different places.

How the values were obtained:
physchem [1] = assay type: physicochemical; settings: water
Description: DL-Pyroglutamic acid (130 mg) was dispersed in 20 ml of acetone to form a solution. To this solution there was added 400 mg of m-AMSA free base. The mixture was stirred and 10 ml of methyl alcohol added drop by drop. Upon agitation, a yellow solid gradually precipitated. The precipitate was collected, washed twice with acetone and dried in vacuo to give the title salt having a melting point of 156°-158° C. and an aqueous solubility at room temperature of about 10 mg/ml.
m-AMSA base (400 mg) was suspended in 30 ml of dried acetone. With gentle stirring, a solution was obtained by gradually adding a solution of 260 mg of DL-pyroglutamic acid in 15 ml of methanol to the above suspension. Two 10 ml portions of dried methanol were added to the solution to precipitate the dipyroglutamate salt. The salt was isolated by filtration, washed with methanol and dried in a vacuum dessicator. The yield of dipyroglutamate salt was about 600 mg; mp 145°-148° C.

[2] = Solubility test in sterile water for injection (saturated filtrate, HPLC, m-AMSA base content); assay type: physicochemical; settings: 0.22μ filtrate, HPLC assay within one hour after reconstitution
Description: To determine the relative solubilities of the pyroglutamate salts and compositions of the present invention and the prior art m-AMSA methanesulfonate salt, the following solubility test was carried out.
The following formulations were tested: […]
The formulations were prepared as follows: […]
(1) The m-AMSA methanesulfonate salt was prepared by slurrying 1 g of m-AMSA base in 125 ml of acetone for 20 minutes. The resulting near solution was vacuum filtered to remove undissolved solids. The solids remaining in the filter were washed with 10 ml of acetone and the wash solution was added to the original filtrate. To the above solution of m-AMSA base there was added with rapid stirring 0.24 ml of methanesulfonic acid over a three minute interval. Crystals formed and the mixture was stirred five additional minutes. The crystals were then vacuum filtered, washed with two 20 ml portions of acetone and vacuum dried at 50° C. for 24 hours to give 1.18 g of m-AMSA methanesulfonate (1:1) salt.
(2) The composition containing m-AMSA base and methanesulfonic acid (1:2 ratio) was prepared by adding 1 equivalent of methanesulfonic acid to the 1:1 m-AMSA methanesulfonate salt prepared above.
(3) The 1:1 m-AMSA pyroglutamate salt was prepared as described in Example 1.
(4) The 1:2 m-AMSA pyroglutamate salt was prepared as described in Example 2.
To carry out the solubility test, accurately weighed amounts of the above-described formulations were added into accurately measure amounts of sterile water for injection and the mixture was shaken by Vortex® mixer for 5 minutes to yield a complete solution. The procedure was continued until no more material dissolved in the solution. The saturated solutions were then passed through a 0.22μ Millipore® filter. The resultant clear filtrates were sampled and assayed via HPLC assay within one hour after reconstitution. Solubility was measured as the m-AMSA base content in the filtrate.

physchem [3] = assay type: physicochemical; settings: water, found by the present inventors, read-out: aqueous solubility
[4] = literature references / prior art, cited from earlier work
animal tumor systems = settings: Cain et al. 1974; cited from earlier work
[5] = initial results; cited from earlier work
[6] = penicillin G, ampicillin, cephalothin etc.; U.S. Pat. No. 3,920,814; cited from earlier work

COc1cc(NS(C)(=O)=O)ccc1Nc1c2ccccc2nc2ccccc12 [Example 1, m-AMSA Mono DL-Pyroglutamate Salt]
solubility (physchem [1]; room temperature, read-out: aqueous solubility): ~10 mg/mL | Solubility (mg/ml m-AMSA base) ([2]; listed as m-AMSA pyroglutamate salt (1:1)): 12.5 mg/ml m-AMSA base

COc1cc(NS(C)(=O)=O)ccc1Nc1c2ccccc2nc2ccccc12 [Example 2, m-AMSA Di DL-Pyroglutamate Salt]
solubility (physchem [1]; m-AMSA base content by HPLC, read-out: aqueous solubility (m-AMSA base content as determined by HPLC)): 13.1 mg/mL | Solubility (mg/ml m-AMSA base) ([2]; listed as m-AMSA pyroglutamate salt (1:2)): 13.1 mg/ml m-AMSA base

COc1cc(NS(C)(=O)=O)ccc1Nc1c2ccccc2nc2ccccc12 [m-AMSA methanesulfonate salt (1:1), m-AMSA methanesulfonate salt]
solubility (physchem [3]): ~90 µg/mL | Solubility (mg/ml m-AMSA base) ([2]; methanesulfonate salt): 0.090 mg/ml m-AMSA base | solubility in water (words) ([4]; listed as monomethanesulfonate salt of m-AMSA, methanesulfonate salt): sufficiently soluble for experimental small animal (mice) antitumor studies | solubility in water (words) ([4]; listed as monomethanesulfonate, methanesulfonate salt): insufficiently water-soluble for practical dosage forms | solubility in water (words) ([4]; methanesulfonate salt): only slightly soluble in water

COc1cc(NS(C)(=O)=O)ccc1Nc1c2ccccc2nc2ccccc12 [m-AMSA]
antitumor activity (animal tumor systems): significant antitumor activity | clinical evaluation [5]: very promising initial results | solubility in water (words) [4]: very limited solubility in water

COc1cc(NS(C)(=O)=O)ccc1Nc1c2ccccc2nc2ccccc12 [monohydrochloride]
solubility in water (words) [4]: insufficiently water-soluble for practical dosage forms | solubility in water (words) ([4]; listed as hydrochloride): only slightly soluble in water

O=C1CCC(C(=O)O)N1 (stereo not drawn) [pyroglutamic acid, 2-pyrrolidone-5-carboxylic acid]
effect on antibiotics [6]: potentiate the intrinsic activity and blood levels of certain antibiotics
